Measured values from the NIST ThermoML archive (doi:10.1021/je800972b).
± gives the expanded uncertainty stated by the source.

Tests used:
[1] = 298.15 K; 101.33 kPa; Liquid
[2] = xn = mol fraction of the nth substance listed; conditions: 298.15 K, 101 kPa, Liquid, Vibrating tube method

CCCO [propan-1-ol]
mass density [1]: 800.61 ± 0.23 kg/m3

C=COCCC [propyl vinyl ether]
mass density [1]: 762.69 ± 0.26 kg/m3

C=COCCC [propyl vinyl ether] + Cc1ccccc1
mass density ([2]; x1 = 0.0494): 857.3 ± 0.22 kg/m3 | mass density ([2]; x1 = 0.1002): 852.46 ± 0.22 kg/m3 | mass density ([2]; x1 = 0.1995): 843.05 ± 0.22 kg/m3 | mass density ([2]; x1 = 0.2999): 833.4 ± 0.22 kg/m3 | mass density ([2]; x1 = 0.3993): 823.66 ± 0.22 kg/m3 | mass density ([2]; x1 = 0.5002): 813.73 ± 0.22 kg/m3 | mass density ([2]; x1 = 0.5999): 803.77 ± 0.22 kg/m3 | mass density ([2]; x1 = 0.6998): 793.65 ± 0.22 kg/m3 | mass density ([2]; x1 = 0.7999): 783.69 ± 0.22 kg/m3 | mass density ([2]; x1 = 0.8993): 773.56 ± 0.22 kg/m3 | mass density ([2]; x1 = 0.95): 768.31 ± 0.22 kg/m3

Cc1ccccc1 [toluene]
mass density [1]: 862.23 ± 0.18 kg/m3
